According to US7273885B2, “Inhibitors of serine proteases, particularly HCV NS3-NS4A protease” (Vertex Pharmaceuticals Incorporated, priority 2002, dated 2007):
Read-outs that look alike come from different tables or passages of the source. *1 amine or outer side, *2 acyl side, *3 side chain or, on linkers, in order; H or OH if unused. Where a SMILES comes first, the peptide text is derived from it. [ ]: non-standard residue; d: D form. The star is where a group is joined. Oic = O=C(O)[C@@H]1C[C@@H]2CCCC[C@@H]2N1; X2 = CCC[C@H](N[*:1])C(=O)C(=O)[*:2]; Chg = N[C@H](C(=O)O)C1CCCCC1; Tle = CC(C)(C)[C@H](N)C(=O)O; Hiv = CC(C)[C@H](O)C(=O)O; NHcPr = C1CC1N*

Key:
[1] = system: Cells containing hepatitis C virus (HCV) replicon; assay: HCV replicon cell assay (Taqman RT-PCR of HCV RNA); format: cell-based
Method: HCV Replicon Cell Assay Protocol
Cells containing hepatitis C virus (HCV) replicon were maintained in DMEM containing 10% fetal bovine serum (FBS), 0.25 mg per ml of G418, with appropriate supplements (media A).
On day 1, replicon cell monolayer was treated with a trypsin:EDTA mixture, removed, and then media A was diluted into a final concentration of 100,000 cells per ml wit. 10,000 cells in 100 ul were plated into each well of a 96-well tissue culture plate, and cultured overnight in a tissue culture incubator at 37° C.
On day 2, compounds (in 100% DMSO) were serially diluted into DMEM containing 2% FBS, 0.5% DMSO, with appropriate supplements (media B). The final concentration of DMSO was maintained at 0.5% throughout the dilution series.
Media on the replicon cell monolayer was removed, and then media B containing various concentrations of compounds was added. Media B without any compound was added to other wells as no compound controls.
Cells were incubated with compound or 0.5% DMSO in media B for 48 hours in a tissue culture incubator at 37° C. At the end of the 48-hour incubation, the media was removed, and the replicon cell monolayer was washed once with PBS and stored at −80° C. prior to RNA extraction.
Culture plates with treated replicon cell monolayers were thawed, and a fixed amount of another RNA virus, such as Bovine Viral Diarrhea Virus (BVDV) was added to cells in each well. RNA extraction reagents (such as reagents from RNeasy kits) were added to the cells immediately to avoid degradation of RNA. Total RNA was extracted according the instruction of manufacturer with modification to improve extraction efficiency and consistency. Finally, total cellular RNA, including HCV replicon RNA, was eluted and stored at −80° C. until further processing.
A Taqman real-time RT-PCR quantification assay was set up with two sets of specific primers and probe. One was for HCV and the other was for BVDV. Total RNA extractants from treated HCV replicon cells was added to the PCR reactions for quantification of both HCV and BVDV RNA in the same PCR well. Experimental failure was flagged and rejected based on the level of BVDV RNA in each well. The level of HCV RNA in each well was calculated according to a standard curve run in the same PCR plate. The percentage of inhibition or decrease of HCV RNA level due to compound treatment was calculated using the DMSO or no compound control as 0% of inhibition. The IC50 (concentration at which 50% inhibition of HCV RNA level is observed) was calculated from the titration curve of any given compound.

[2] = molecular target: HCV NS3-NS4A protease (tNS3 with KK4A) (Hepatitis C virus genotype 1a, UniProt P27958); assay: HCV Ki assay (HPLC microbore separation of 5AB substrate and products); format: biochemical
HCV NS3-NS4A protease (tNS3 with KK4A), sequence (P27958 1027-1208): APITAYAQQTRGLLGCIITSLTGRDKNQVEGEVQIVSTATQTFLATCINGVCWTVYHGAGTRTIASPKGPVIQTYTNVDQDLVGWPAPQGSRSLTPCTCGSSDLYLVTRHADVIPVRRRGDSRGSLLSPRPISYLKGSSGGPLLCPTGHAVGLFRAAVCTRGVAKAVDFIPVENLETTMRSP
Method: HPLC Microbore Method for Separation of 5AB Substrate and Products
• Substrate: • NH2-Glu-Asp-Val-Val-(alpha)Abu-Cys-Ser-Met-Ser-Tyr-COOH
A stock solution of 20 mM 5AB (or concentration of your choice) was made in DMSO w/ 0.2M DTT. This was stored in aliquots at −20 C.
Buffer: 50 mM HEPES, pH 7.8; 20% glycerol; 100 mM NaCl
Total assay volume was 100 μL
The buffer, KK4A, DTT, and tNS3 were combined; distributed 78 μL each into wells of 96 well plate. This was incubated at 30 C for ˜5–10 min.
2.5 μL of appropriate concentration of test compound was dissolved in DMSO (DMSO only for control) and added to each well. This was incubated at room temperature for 15 min.
Initiated reaction by addition of 20 μL of 250 μM 5AB substrate (25 μM concentration is equivalent or slightly lower than the Km for 5AB).
Incubated for 20 min at 30 C.
Terminated reaction by addition of 25 μL of 10% TFA
Transferred 120 μL aliquots to HPLC vials
Separated SMSY product from substrate and KK4A by the following method:
Microbore Separation Method:
Instrumentation: Agilent 1100
• Degasser G1322A • Binary pump G1312A • Autosampler G1313A • Column thermostated chamber G1316A • Diode array detector G1315A Column:
Phenomenex Jupiter; 5 micron C18; 300 angstroms; 150×2 mm; P/O 00F-4053-B0 • Column thermostat: 40 C • Injection volume: 100 μL • Solvent A=HPLC grade water+0.1% TFA • Solvent B=HPLC grade acetonitrile+0.1% TFA
• Stop time: 17 min • Post-run time: 10 min.

[3] = 50% inhibition of HCV RNA level, 48-hour incubation, HCV replicon cells, read-out: IC50

| Structure (SMILES) | IC50 [1, 3] [nM] | Ki [2] [nM] | IC50 ([1]; 48 h) [nM] |
| --- | --- | --- | --- |
| CCC[C@H](NC(=O)[C@@H]1C[C@@H]2CCCC[C@@H]2N1C(=O)[C@@H](NC(=O)[C@@H](NC(=O)[C@](C)(O)c1ccccc1)C1CCCCC1)C(C)(C)C)C(=O)C(=O)NC1CC1 [Compound 20a] | 500 to 1000 | < 500 |  |
| CCC[C@H](NC(=O)[C@@H]1C[C@@H]2CCCC[C@@H]2N1C(=O)[C@@H](NC(=O)[C@@H](NC(=O)C(=O)Nc1ccccc1)C1CCCCC1)C(C)(C)C)C(=O)C(=O)NC1CC1 [Compound 21a] |  | < 500 | < 500 |
| CCC[C@H](NC(=O)[C@@H]1C[C@@H]2CCCC[C@@H]2N1C(=O)[C@@H](NC(=O)[C@@H](NC(=O)C1(O)CCCC1)C1CCCCC1)C(C)(C)C)C(=O)C(=O)NC1CC1 [Compound 22a] | 1000 to 5000 | 500 to 1000 |  |
| CCC[C@H](NC(=O)[C@@H]1C[C@@H]2CCCC[C@@H]2N1C(=O)[C@@H](NC(=O)[C@@H](NC(=O)[C@@H](O)C(C)C)C1CCCCC1)C(C)(C)C)C(=O)C(=O)NC1CC1 [Compound 23a] (H-[Hiv][Chg][Tle][Oic][X2]-NHcPr) | 1000 to 5000 | < 500 |  |
| CCC[C@H](NC(=O)[C@@H]1C[C@@H]2CCCC[C@@H]2N1C(=O)[C@@H](NC(=O)[C@@H](NC(=O)C(=O)C(C)C)C1CCCCC1)C(C)(C)C)C(=O)C(=O)NC1CC1 [Compound 24a] | 1000 to 5000 | < 500 |  |
| CCC[C@H](NC(=O)[C@@H]1C[C@@H]2CCCC[C@@H]2N1C(=O)[C@@H](NC(=O)[C@@H](NC(=O)c1[nH]c(C)c(C)c1C(C)=O)C1CCCCC1)C(C)(C)C)C(=O)C(=O)NC1CC1 [Compound 25a] | < 500 | < 500 |  |
| CCC[C@H](NC(=O)[C@@H]1C[C@@H]2CCCC[C@@H]2N1C(=O)[C@@H](NC(=O)[C@@H](NC(=O)c1ccoc1)C1CCCCC1)C(C)(C)C)C(=O)C(=O)NC1CC1 [Compound 26a] | 1000 to 5000 | < 500 |  |
| CCC[C@H](NC(=O)[C@@H]1C[C@@H]2CCCC[C@@H]2N1C(=O)[C@@H](NC(=O)[C@@H](NC(=O)c1ccco1)C1CCCCC1)C(C)(C)C)C(=O)C(=O)NC1CC1 [Compound 27a] | 1000 to 5000 | < 500 |  |
| CCC[C@H](NC(=O)[C@@H]1C[C@@H]2CCCC[C@@H]2N1C(=O)[C@@H](NC(=O)[C@@H](NC(=O)c1[nH]c(C)c(C(C)=O)c1C)C1CCCCC1)C(C)(C)C)C(=O)C(=O)NC1CC1 [Compound 29a] | 500 to 1000 | < 500 |  |
| CCC[C@H](NC(=O)[C@@H]1C[C@@H]2CCCC[C@@H]2N1C(=O)[C@@H](NC(=O)[C@@H](NC(=O)c1ccccn1)C1CCCCC1)C(C)(C)C)C(=O)C(=O)NC1CC1 [Compound 30a] | 1000 to 5000 | 500 to 1000 |  |
| CCC[C@H](NC(=O)[C@@H]1C[C@@H]2CCCC[C@@H]2N1C(=O)[C@@H](NC(=O)[C@@H](NC(=O)c1cccnc1)C1CCCCC1)C(C)(C)C)C(=O)C(=O)NC1CC1 [Compound 31a] | 1000 to 5000 | < 500 |  |
| CCC[C@H](NC(=O)[C@@H]1C[C@@H]2CCCC[C@@H]2N1C(=O)[C@@H](NC(=O)[C@@H](NC(=O)c1ccncc1)C1CCCCC1)C(C)(C)C)C(=O)C(=O)NC1CC1 [Compound 32a] | 1000 to 5000 | < 500 |  |
| CCCC(NC(=O)[C@@H]1C[C@@H]2CCCC[C@@H]2N1C(=O)[C@@H](NC(=O)[C@@H](NC(=O)c1[nH]c(C)c(C)c1C(C)=O)C1CCCCC1)C(C)(C)C)C(=O)C(=O)NC1CC1 (some centres unmarked) [Compound 33a] | < 500 | < 500 |  |
| CCC[C@H](NC(=O)[C@@H]1C[C@@H]2CCCC[C@@H]2N1C(=O)[C@@H](NC(=O)[C@@H](NC(=O)c1[nH]c(C)c(C(=O)c2ccccc2)c1C#N)C1CCCCC1)C(C)(C)C)C(=O)C(=O)NC1CC1 [Compound 34a] | 1000 to 5000 | < 500 |  |
| CCC[C@H](NC(=O)[C@@H]1C[C@@H]2CCCC[C@@H]2N1C(=O)[C@@H](NC(=O)[C@@H](NC(=O)c1cnc2ccccc2n1)C1CCCCC1)C(C)(C)C)C(=O)C(=O)NC1CC1 [Compound 35a] | 1000 to 5000 | < 500 |  |
| CCC[C@H](NC(=O)[C@@H]1C[C@@H]2CCCC[C@@H]2N1C(=O)[C@@H](NC(=O)[C@@H](NC(=O)c1ccc2cccnc2n1)C1CCCCC1)C(C)(C)C)C(=O)C(=O)NC1CC1 [Compound 36a] | 1000 to 5000 | < 500 |  |
| CCC[C@H](NC(=O)[C@@H]1C[C@@H]2CCCC[C@@H]2N1C(=O)[C@@H](NC(=O)[C@@H](NC(=O)c1cc(C)c(C(C)=O)[nH]1)C1CCCCC1)C(C)(C)C)C(=O)C(=O)NC1CC1 [Compound 37a] | < 500 | < 500 |  |
| CCC[C@H](NC(=O)[C@@H]1C[C@@H]2CCCC[C@@H]2N1C(=O)[C@@H](NC(=O)[C@@H](NC(=O)c1[nH]c2ccccc2c1C(C)=O)C1CCCCC1)C(C)(C)C)C(=O)C(=O)NC1CC1 [Compound 39a, 3-Acetyl-1H-indole-2-carboxylic acid (cyclohexyl-{1-[2-(1-cyclopropylaminooxalyl-butylcarbamoyl)-octahydro-indole-1-carbonyl]-2,2-dimethyl-propylcarbamoyl}-methyl)-amide] | < 500 | < 500 |  |
| CCC[C@H](NC(=O)[C@@H]1C[C@@H]2CCCC[C@@H]2N1C(=O)[C@@H](NC(=O)[C@@H](NC(=O)c1cc2cc(C(C)=O)ccc2[nH]1)C1CCCCC1)C(C)(C)C)C(=O)C(=O)NC1CC1 [Compound 40a, 5-Acetyl-1H-indole-2-carboxylic acid (cyclohexyl-{1-[2-(1-cyclopropylaminooxalyl-butylcarbamoyl)-octahydro-indole-1-carbonyl]-2,2-dimethyl-propylcarbamoyl}-methyl)-amide] | < 500 | < 500 |  |
| CCC[C@@H](NC(=O)[C@@H]1C[C@@H]2CCCC[C@@H]2N1C(=O)[C@@H](NC(=O)[C@@H](NC(=O)c1[nH]c(C)c(C)c1C(C)=O)C1CCCCC1)C(C)(C)C)C(=O)C(=O)NC1CC1 [Compound 41a] | < 500 | 1000 to 5000 |  |
| CCC[C@H](NC(=O)[C@@H]1C[C@@H]2CCCC[C@@H]2N1C(=O)[C@@H](NC(=O)[C@@H](NC(=O)c1cc(CC)c(C(C)=O)[nH]1)C1CCCCC1)C(C)(C)C)C(=O)C(=O)NC1CC1 [Compound 42a] | < 500 | < 500 |  |
| CCC[C@H](NC(=O)[C@@H]1C[C@@H]2CCCC[C@@H]2N1C(=O)[C@@H](NC(=O)[C@@H](NC(=O)c1cc(Cl)c(Cl)[nH]1)C1CCCCC1)C(C)(C)C)C(=O)C(=O)NC1CC1 [Compound 43a] | < 500 | < 500 |  |
| CCC[C@H](NC(=O)[C@@H]1C[C@@H]2CCCC[C@@H]2N1C(=O)[C@@H](NC(=O)[C@@H](NC(=O)c1cc(C(=O)CC)c[nH]1)C1CCCCC1)C(C)(C)C)C(=O)C(=O)NC1CC1 [Compound 44a] | < 500 | < 500 |  |
| CC(=O)c1c(C(=O)N[C@H](C(=O)N[C@H](C(=O)N2[C@H](C(=O)NC(CCC(F)(F)F)C(=O)C(=O)NC3CC3)C[C@@H]3CCCC[C@@H]32)C(C)(C)C)C2CCCCC2)[nH]c(C)c1C (some centres unmarked) [Compound 45a] | < 500 | < 500 |  |
| CCC[C@H](NC(=O)[C@@H]1C[C@@H]2CCCC[C@@H]2N1C(=O)[C@@H](NC(=O)[C@@H](NC(=O)[C@@H]1Cc2ccccc2N1)C1CCCCC1)C(C)(C)C)C(=O)C(=O)NC1CC1 [Compound 46a] | 1000 to 5000 | < 500 |  |
